Experimental data taken from ChEMBL document CHEMBL4433255, “Small-molecule agents for the treatment of inflammatory bowel disease” (Bioorg Med Chem Lett, 2019).
Values belong to the compound of their own block, whether it stands above or below them.

Key:
Mus musculus = assay: Immunosuppressive activity in BALB/c mouse assessed as inhibition of leukocyte homing to peyer's patches orally dosed by FACS analysis; format: functional, organism-based
Integrin alpha-4/beta-7 = biological target: T1, Integrin alpha-4/beta-7 (Homo sapiens, UniProt P13612+P26010); assay: Antagonist activity at integrin alpha4beta7 expressed in human RPMI8866 cells assessed as reduction in cell adhesion to rat MadCAM incubated for 40 to 60 mins by lactate dehydrogenase assay; format: cell-based
T1 sequence (P13612 whole entry): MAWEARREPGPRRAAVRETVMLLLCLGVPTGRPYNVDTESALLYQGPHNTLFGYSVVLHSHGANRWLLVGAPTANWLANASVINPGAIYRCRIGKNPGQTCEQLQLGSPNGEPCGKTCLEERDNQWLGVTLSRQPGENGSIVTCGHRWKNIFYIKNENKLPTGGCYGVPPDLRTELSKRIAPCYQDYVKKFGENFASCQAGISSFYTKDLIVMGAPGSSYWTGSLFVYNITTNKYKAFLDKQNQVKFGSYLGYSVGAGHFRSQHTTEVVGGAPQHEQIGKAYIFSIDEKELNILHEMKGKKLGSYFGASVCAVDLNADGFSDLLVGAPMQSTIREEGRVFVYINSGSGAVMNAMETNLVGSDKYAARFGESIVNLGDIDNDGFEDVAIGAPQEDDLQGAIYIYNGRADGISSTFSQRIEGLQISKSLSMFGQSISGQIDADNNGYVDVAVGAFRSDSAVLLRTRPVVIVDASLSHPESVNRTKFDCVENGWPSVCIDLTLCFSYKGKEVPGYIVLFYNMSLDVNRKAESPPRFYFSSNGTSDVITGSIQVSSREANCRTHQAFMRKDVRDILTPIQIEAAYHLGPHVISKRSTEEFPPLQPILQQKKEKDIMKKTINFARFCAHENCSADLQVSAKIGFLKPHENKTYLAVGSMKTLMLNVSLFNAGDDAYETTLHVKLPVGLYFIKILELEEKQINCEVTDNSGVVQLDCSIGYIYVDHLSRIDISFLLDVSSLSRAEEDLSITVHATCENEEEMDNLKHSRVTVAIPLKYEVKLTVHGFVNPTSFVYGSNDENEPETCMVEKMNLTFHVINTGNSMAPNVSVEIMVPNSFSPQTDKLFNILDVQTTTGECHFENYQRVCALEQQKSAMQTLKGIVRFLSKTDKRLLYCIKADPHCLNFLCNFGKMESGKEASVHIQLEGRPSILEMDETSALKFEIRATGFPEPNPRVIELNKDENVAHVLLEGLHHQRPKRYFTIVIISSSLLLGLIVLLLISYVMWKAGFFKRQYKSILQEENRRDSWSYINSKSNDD
T1 sequence (P26010 whole entry): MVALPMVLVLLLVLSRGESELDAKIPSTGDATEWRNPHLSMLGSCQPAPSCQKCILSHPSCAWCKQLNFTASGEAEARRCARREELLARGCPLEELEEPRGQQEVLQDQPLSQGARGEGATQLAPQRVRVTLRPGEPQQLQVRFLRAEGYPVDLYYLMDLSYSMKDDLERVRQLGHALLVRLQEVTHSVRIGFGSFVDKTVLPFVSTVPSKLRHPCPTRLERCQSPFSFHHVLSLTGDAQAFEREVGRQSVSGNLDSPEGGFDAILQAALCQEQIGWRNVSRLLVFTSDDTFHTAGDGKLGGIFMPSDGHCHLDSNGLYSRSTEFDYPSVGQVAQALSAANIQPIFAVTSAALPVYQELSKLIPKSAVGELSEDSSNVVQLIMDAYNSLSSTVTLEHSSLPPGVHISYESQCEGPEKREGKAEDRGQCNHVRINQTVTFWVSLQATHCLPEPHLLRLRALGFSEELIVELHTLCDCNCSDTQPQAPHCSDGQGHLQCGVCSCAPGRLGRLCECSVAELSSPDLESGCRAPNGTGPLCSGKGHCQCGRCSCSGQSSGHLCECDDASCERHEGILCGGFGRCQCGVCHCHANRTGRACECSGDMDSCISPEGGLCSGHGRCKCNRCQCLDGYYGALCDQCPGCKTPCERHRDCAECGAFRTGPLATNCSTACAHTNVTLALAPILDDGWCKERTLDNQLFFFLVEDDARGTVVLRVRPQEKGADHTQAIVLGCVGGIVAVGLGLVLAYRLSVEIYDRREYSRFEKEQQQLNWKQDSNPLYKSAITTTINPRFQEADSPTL

Integrin alpha-4/beta-1 = Integrin alpha-4/beta-1 (Homo sapiens, UniProt P05556+P13612); assay: Antagonist activity at integrin alpha4beta1 expressed in human Jurkat cells assessed as reduction in cell adhesion to human VCAM-1 incubated for 40 to 60 mins by lactate dehydrogenase assay; format: cell-based
Integrin alpha-4/beta-1, sequence (P05556 whole entry, one chain of several): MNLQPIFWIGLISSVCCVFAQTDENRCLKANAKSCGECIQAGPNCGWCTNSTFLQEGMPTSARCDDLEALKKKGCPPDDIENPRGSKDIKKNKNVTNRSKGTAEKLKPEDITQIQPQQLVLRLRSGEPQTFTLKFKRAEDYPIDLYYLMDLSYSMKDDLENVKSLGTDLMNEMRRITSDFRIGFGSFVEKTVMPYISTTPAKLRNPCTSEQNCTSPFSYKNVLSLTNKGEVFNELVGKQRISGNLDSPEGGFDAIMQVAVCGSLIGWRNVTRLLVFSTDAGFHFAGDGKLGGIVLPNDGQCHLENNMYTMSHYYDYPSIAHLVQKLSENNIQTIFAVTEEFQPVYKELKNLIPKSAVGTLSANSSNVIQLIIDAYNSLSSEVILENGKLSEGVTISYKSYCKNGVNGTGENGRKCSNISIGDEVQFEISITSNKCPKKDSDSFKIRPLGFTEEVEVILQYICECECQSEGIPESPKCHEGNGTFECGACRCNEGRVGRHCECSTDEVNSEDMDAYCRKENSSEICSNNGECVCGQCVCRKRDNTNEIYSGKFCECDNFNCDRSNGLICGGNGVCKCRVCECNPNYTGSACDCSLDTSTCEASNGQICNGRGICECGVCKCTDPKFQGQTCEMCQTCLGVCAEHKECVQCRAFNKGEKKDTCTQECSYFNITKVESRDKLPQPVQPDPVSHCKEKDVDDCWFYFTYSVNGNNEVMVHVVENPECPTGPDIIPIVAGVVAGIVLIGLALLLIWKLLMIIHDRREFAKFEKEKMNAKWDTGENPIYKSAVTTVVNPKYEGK

[1] = Inhibition of IL-10 deficient BALB/c mouse CD4 positive T-cell migration by immunofluorescence method relative to control; format: functional
Rattus norvegicus = assay: Antiinflammatory activity in Sprague-Dawley rat model of TNBS-induced colitis assessed as reduction in number of circulating lymphocytes at 0.6 mg/kg, po dosed 2 hrs after TNBS treatment and continued daily for 7 days by gavage and measured up to 24 hrs post treatment relative to control; format: functional; set-up: scale not given: the % may be the effect or the level left
[2] = biological target: Sphingosine 1-phosphate receptor 5 (Homo sapiens, UniProt Q9H228); assay: Agonist activity at S1P5 (unknown origin) assessed as stimulation of [35S]GTPgammaS binding incubated for 120 mins in presence of GDP by TopCount scintillation counting method; format: functional
Sphingosine 1-phosphate receptor 5, sequence (Q9H228 whole entry): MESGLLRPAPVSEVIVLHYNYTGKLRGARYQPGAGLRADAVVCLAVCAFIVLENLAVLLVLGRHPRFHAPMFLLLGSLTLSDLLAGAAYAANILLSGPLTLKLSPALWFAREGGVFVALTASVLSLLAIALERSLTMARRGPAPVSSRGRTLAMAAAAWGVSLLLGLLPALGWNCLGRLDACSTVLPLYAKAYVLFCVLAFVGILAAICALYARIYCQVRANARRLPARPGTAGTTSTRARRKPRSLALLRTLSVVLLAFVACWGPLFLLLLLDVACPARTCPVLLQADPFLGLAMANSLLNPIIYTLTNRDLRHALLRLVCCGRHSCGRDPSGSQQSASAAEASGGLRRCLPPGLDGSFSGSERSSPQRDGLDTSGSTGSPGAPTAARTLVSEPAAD

[3] = Inhibition of recombinant human BCR-JAK1 expressed in mouse Ba/F3 cells assessed as reduction in pSTAT5 level incubated for 30 mins by AlphaScreen assay; format: cell-based; conditions: BaF3, 0.5 h
Homo sapiens [4] = species on record: Homo sapiens; assay: Selectivity ratio of EC50 for recombinant human BCR-JAK1 expressed in mouse Ba/F3 cells to EC50 for recombinant human TEL-TYK2 expressed in mouse Ba/F3 cells; format: cell-based
Homo sapiens [5] = species on record: Homo sapiens; assay: Selectivity ratio of EC50 for recombinant human BCR-JAK1 expressed in mouse Ba/F3 cells to EC50 for recombinant human TEL-JAK3 expressed in mouse Ba/F3 cells; format: cell-based
Homo sapiens [6] = species on record: Homo sapiens; assay: Selectivity ratio of EC50 for recombinant human BCR-JAK1 expressed in mouse Ba/F3 cells to EC50 for recombinant human TEL-JAK2 expressed in mouse Ba/F3 cells; format: cell-based
BaF3 = assay: Inhibition of chemotaxis in mouse BAF3 cells; format: functional, cell-based

EC50 (Mus musculus): 180 nM
EC50 (Integrin alpha-4/beta-7): 1.4 nM
EC50 (Integrin alpha-4/beta-1): 5.4 nM
Structure (SMILES): CN(C)c1ccc2c(c1)c(=O)n(-c1ccc(C[C@H](NC(=O)c3c(Cl)cccc3Cl)C(=O)O)cc1)c(=O)n2C
inhibition (INH) [1]: >95%

EC50 [2]: 4.3 nM
Structure (SMILES): CC(C)Oc1ccc(-c2nc(-c3cccc4c3CC[C@@H]4NCCO)no2)cc1C#N [OZANIMOD]
Activity (Rattus norvegicus): 51%

EC50 [3]: 14 nM
Structure (SMILES): CC[C@@H]1CN(C(=O)NCC(F)(F)F)C[C@@H]1c1cnc2cnc3[nH]ccc3n12 [UPADACITINIB]
Ratio EC50 (Homo sapiens [4]): 192
Ratio EC50 (Homo sapiens [5]): 133
Ratio EC50 (Homo sapiens [6]): 42

EC50 (BaF3): 2.8 nM
Structure (SMILES): CC(C)(C)c1ccc(S(=O)(=O)Nc2ccc(Cl)cc2C(=O)c2cc[n+]([O-])cc2)cc1 [VERCIRNON]
